# Test results published in patent US5840688A, “Eating suppressant peptides” (Research Corporation Technologies, Inc., priority 1995, dated 1998).
# No end group written: not given here.
# B1: apo A-IV: 46,000-Da polypeptide associated with lipoproteins; species of the cited test protein not printed (protein, UniProt P06727 21-396, looked up)
# Apolipoprotein A-IV: EVSADQVATVMWDYFSQLSNNAKEAVEHLQKSELTQQLNALFQDKLGEVNTYAGDLQKKLVPFATELHERLAKDSEKLKEEIGKELEELRARLLPHANEVSQKIGDNLRELQQRLEPYADQLRTQVSTQAEQLRRQLTPYAQRMERVLRENADSLQASLRPHADELKAKIDQNVEELKGRLTPYADEFKVKIDQTVEELRRSLAPYAQDTQEKLNHQLEGLTFQMKKNAEELKARISASAEELRQRLAPLAEDVRGNLRGNTEGLQKSLAELGGHLDQQVEEFRRRVEPYGENFNKALVQQMEQLRQKLGPHAGDVEGHLSFLEKDLRDKVNSFFSTFKEKESQDKTLSLPELEQQQEQQQEQQQEQVQMLAPLES
# B2: human apo A-IV: entire human apolipoprotein A-IV molecule obtained from human serum, purified by preparative polyacrylamide gel electrophoresis (protein, UniProt P06727 21-396, looked up)
# Apolipoprotein A-IV: B1 Apolipoprotein A-IV
# B3: cholecystokinin (peptide, UniProt P06307 21-115, looked up)
# Cholecystokinin: QPVPPADPAGSGLQRAEEAPRRQLRVSQRTDGESRAHLGALLARYIQQARKAPSGRMSIVKNLQNLDPSHRISDRDYMGWMDFGRRSAEEYEYPS
# modifications: Cholecystokinin
# notes: peptide proposed as affecting eating behavior
# Key:
# [1] = tested on: animal; details: in vivo; cited from earlier work
# [2] = tested on: male Sprague Dawley rats; assay: Feeding study: food intake after infusion into the third ventricle of 24 h fasted rats; assay type: in vivo, rat
# Method: Animals used in vivo food intake studies were male Sprague Dawley rats weighing between 280 and 320 grams. The rats were housed in a room illuminated from 06:00 to 18:00 hours (twelve hour light-dark cycle) with a temperature maintained at 21 ±1° C. Both tap water and powdered laboratory chow (Laboratory chow #5001, Purina Mills, Inc.) were provided ad libitum to the rats.
# Rats used in the study were surgically equipped with an infusion cannula in the third ventricle. Under sodium pentobarbital anesthesia (50 mg/kg ip), each rat was fixed in a stereotaxic apparatus, its skull was exposed, and two small screws were threaded into the skull to anchor the cannula. A three millimeter diameter hole was drilled in the skull on the midline six millimeters anterior to ear bar zero. […]
# In the feeding study, food was removed twenty four hours before the experiment, but free access to water was allowed. […] After twenty four hours of fasting, each rat was re-fed at 13:00 hour, and powdered food consumption was measured at thirty minutes after the resumption of feeding. […]
# Data from the feeding study were evaluated using one-way analysis of variance, and multiple comparisons were carried out using the method of least significant difference. […]
# [3] = tested on: male Sprague Dawley rats; details: cited from earlier work
# [4] = apo A-IV appearing in mesenteric lymph after a lipid meal; cited from earlier work
Molecule,food intake in animal studies [1],also measured
CSCC[C@H](NC(=O)[C@H](CC(C)C)NC(=O)[C@H](Cc1cnc[nH]1)NC(=O)CNC(=O)[C@@H](NC(=O)[C@H](C)NC(=O)[C@H](Cc1c[nH]c2ccccc12)NC(=O)[C@H](CCC(N)=O)NC(=O)[C@H](CC(N)=O)NC(=O)CNC(=O)[C@H](CC(C)C)NC(=O)[C@H](CCCN=C(N)N)NC(=O)[C@H](CCC(N)=O)NC(=O)[C@@H]1CCC(=O)N1)C(C)C)C(N)=O [bombesin],decrease food intake,–
"EVTSDQVANVMWDYFTQL SNNAKEAVEQLQ (EVTSDQVANVMWDYFTQLSNNAKEAVEQLQ) [SEQ ID NO:1, 30-mer, first thirty amino acids of the mature rat apo A-IV]",–,"inhibition of food intake ([2]; synthetic peptide infused into third ventricle, doses 0.125-1.0 μg per rat, 24 h fasted, food consumption at thirty minutes after re-feeding): inhibit food intake in a dose-dependent manner"
Glucagon,decrease food intake,–
anorectin,decrease food intake,–
"calcitonin (CGNLSTCMLGTYTQDFNKFHTFPQTAIGVGAP; ends and bridges not checked; cysteine pairing not given here; UniProt P01258 85-116, looked up) [peptide proposed as affecting eating behavior]",decrease food intake,–
"corticotropin releasing hormone (SEEPPISLDLTFHLLREVLEMARAEQLAQQAHSNRKLMEII; ends and bridges not checked; UniProt P06850 154-194, looked up) [peptide proposed as affecting eating behavior]",decrease food intake,–
cyclo-HisPro,decrease food intake,–
enterostatin,decrease food intake,–
B1,–,food intake after central administration ([3]; administered centrally): significantly suppressed in a dose-dependent manner; potency administered centrally versus peripherally ([3]; central vs peripheral administration): more than 50 fold; food intake [4]: suppresses food intake
B2,–,"suppression of food intake ([2]; third ventricle infusion, 1.5 and 3 μg per rat): effective in suppressing food intake in rats in a dose dependent manner"
B3,decrease food intake,–
